These results are taken from patent US8911798B2, “Multivitamin and mineral compositions for individuals having renal disease” (priority 2007, dated 2014).

For orientation: bioavailability means dose-corrected exposure relative to a reference, in per cent.

The conditions of series [1]: daily doses higher than 1 mg/day; cited from earlier work.
Series [2] is described as follows: Cholecalciferol dosing, calciuria and hypercalcemia in renal patients. Type of series: in vivo, human. An excerpt:
The inventor has discovered that these therapeutic approaches are obsolete today because of the risk of prolonged hypercalcemia resulting from the long half-life of 25-(OH)-D3 in renal patients. […] Likewise, the inventor has discovered that repletion of vitamin D to achieve a plasma 25-(OH)-D concentration in the 80th percentile or higher of normal clinical values prevents renal osteodystrophy, Looser zones, and sub-periosteal resorption, despite the persistence of hypocalcemia, hyperphosphatemia and metabolic acidosis, or the use of calcium-aluminum free phosphate binders such as sevelamer salts. Therefore, a composition of the invention comprises 375 to 425 IU of vitamin D and a preferred embodiment of a composition of the invention provides 400 IU of vitamin D.

The conditions of series [3]: cited from earlier work.
The conditions of series [4]: blood flow of 200-300 mL/min; cited from earlier work.
For series [5] the following is noted: 43 maintenance hemodialysis patients, low flux/low efficiency dialyzers; 200 mg post-dialysis 2-3 times per week (400-600 mg weekly) orally; cited from earlier work.
For series [6] the following is noted: up to 200 mg/day; cited from earlier work.
The conditions of series [7]: zinc supplementation, dialysis patients; cited from earlier work.
For series [8] the following is noted: 400 μg/L in dialysate, 6 months; cited from earlier work.
For series [9] the following is noted: daily oral 25 mg elemental zinc, 6 months; from 81±8 mcg/dL; normal controls 111±10 μg/dL; p<0.005; cited from earlier work.
For series [10] the following is noted: in vivo; cited from earlier work.
The conditions of series [11]: cited from earlier work. This is another data set of the same source.
For series [12] the following is noted: 15 days of treatment with 300 mg/day; hemodialysis patients; cited from earlier work.
The conditions of series [13]: single oral dose of 1200 IU; cited from earlier work.
Series [14] can be described thus: Daily vitamin K over several years in the general population. As to conditions: 1 mg dose each day over several years. Type of series: in vivo, human. An excerpt:
The inventor has discovered that the 10 mcg dose of vitamin K that is provided in conventional multivitamin preparations is too low. […] A composition of their invention comprises vitamin K in doses that are appropriate for subjects with renal disease and provides 25 to 1000 mcg of vitamin K, and a preferred embodiment of a composition of the invention provides 50 mcg of vitamin K.

In the case of `Nc1nc2ncc(CNc3ccc(C(=O)N[C@@H](CCC(=O)O)C(=O)O)cc3)nc2c(=O)[nH]1` [Folic acid], in [1], the “renal patients in whom plasma homocysteine levels are lowered” value is given as “up to 30%”.
For `C=C1CC[C@H](O)C/C1=C/C=C1\CCC[C@]2(C)[C@@H]([C@H](C)CCCC(C)C)CC[C@@H]12` [cholecalciferol], the calciuria and hypercalcemia result is reported as “does not cause an increase in calciuria in pre-dialysis patients nor hypercalcemia” in [2] (dose of 800 IU or 20 mcg, pre-dialysis patients) and “these complications are seen” in [2] (doses in excess of 2400 IU or 60 mcg/day).
`[Se]` [selenium]: the “APACHE III score versus untreated group” value in series [3] (SIRS patients) is on record as “significantly lower”. Moreover, the “time to normalization of serum selenium levels and GSH-Px activity” value in series [3] (Se treated SIRS patients) is on record as ≤ 3 days. For the same compound, the overall mortality in series [3] (Se+ group, 52% in the Se− group) was 33.5%.
In the case of `O=C1O[C@H]([C@@H](O)CO)C(O)=C1O` [vitamin C, ascorbic acid], the “clearance of vitamin C (ascorbate) during hemodialysis” value in [4] is “about 100 mL/min”. Moreover, the “patients with decreased plasma vitamin C levels / serum levels not maintained despite supplement” value in [5] is reported as 27%. Also, the bioavailability in series [6] was ~100%.
Consider `[Zn]` [zinc], for which the “patients with plasma testosterone levels increased into the normal range” value in series [7] is on record as 50%. In series [8], the “intracellular content of ATP in lymphocytes” value is “increased intracellular content of ATP in lymphocytes” and the serum zinc level result was “significant increase in serum zinc level”. The “plasma Zn levels after treatment” value in series [9] was 110 ± 14 µg/dL. Further, the “plasma level at which zinc toxicity is seen” value in series [10] is “around 700 mcg/dL”.
Turning to Fe(III) hydroxide sucrose complex, the “hemodialysis patients with bleomycin-detectable free iron in the circulation” value in series [11] (100 mg intravenously) is listed as 8 of the 10. The “plasma total peroxide and malondialdehyde concentrations” value in series [11] (within ten minutes following infusion of 100 mg) was “rise in plasma total peroxide and malondialdehyde concentrations”.
For the compound vitamin E, in series [12], the “platelet vitamin E levels” value is “increased to the normal range”. For the same compound, in [13], the “oxidative stress induced by intravenous iron” value was “effective in attenuating the oxidative stress”.
vitamin K: in series [14], the untoward effects result is listed as “no untoward effects”.
